Test results as given in ChEMBL document CHEMBL5724796, “Tm Shift (DSF) assay results for EUbOPEN Chemogenomics Library” (2024).
Residues, ends and D or L forms follow the SMILES beside them. *: point of attachment. Boc = CC(C)(C)OC(=O)*

Experiments:
Peregrin (Homo sapiens) = target: T1, Peregrin (Homo sapiens) (UniProt P55201); conditions: Compound concentration 20.0 uM
T1 sequence (whole entry): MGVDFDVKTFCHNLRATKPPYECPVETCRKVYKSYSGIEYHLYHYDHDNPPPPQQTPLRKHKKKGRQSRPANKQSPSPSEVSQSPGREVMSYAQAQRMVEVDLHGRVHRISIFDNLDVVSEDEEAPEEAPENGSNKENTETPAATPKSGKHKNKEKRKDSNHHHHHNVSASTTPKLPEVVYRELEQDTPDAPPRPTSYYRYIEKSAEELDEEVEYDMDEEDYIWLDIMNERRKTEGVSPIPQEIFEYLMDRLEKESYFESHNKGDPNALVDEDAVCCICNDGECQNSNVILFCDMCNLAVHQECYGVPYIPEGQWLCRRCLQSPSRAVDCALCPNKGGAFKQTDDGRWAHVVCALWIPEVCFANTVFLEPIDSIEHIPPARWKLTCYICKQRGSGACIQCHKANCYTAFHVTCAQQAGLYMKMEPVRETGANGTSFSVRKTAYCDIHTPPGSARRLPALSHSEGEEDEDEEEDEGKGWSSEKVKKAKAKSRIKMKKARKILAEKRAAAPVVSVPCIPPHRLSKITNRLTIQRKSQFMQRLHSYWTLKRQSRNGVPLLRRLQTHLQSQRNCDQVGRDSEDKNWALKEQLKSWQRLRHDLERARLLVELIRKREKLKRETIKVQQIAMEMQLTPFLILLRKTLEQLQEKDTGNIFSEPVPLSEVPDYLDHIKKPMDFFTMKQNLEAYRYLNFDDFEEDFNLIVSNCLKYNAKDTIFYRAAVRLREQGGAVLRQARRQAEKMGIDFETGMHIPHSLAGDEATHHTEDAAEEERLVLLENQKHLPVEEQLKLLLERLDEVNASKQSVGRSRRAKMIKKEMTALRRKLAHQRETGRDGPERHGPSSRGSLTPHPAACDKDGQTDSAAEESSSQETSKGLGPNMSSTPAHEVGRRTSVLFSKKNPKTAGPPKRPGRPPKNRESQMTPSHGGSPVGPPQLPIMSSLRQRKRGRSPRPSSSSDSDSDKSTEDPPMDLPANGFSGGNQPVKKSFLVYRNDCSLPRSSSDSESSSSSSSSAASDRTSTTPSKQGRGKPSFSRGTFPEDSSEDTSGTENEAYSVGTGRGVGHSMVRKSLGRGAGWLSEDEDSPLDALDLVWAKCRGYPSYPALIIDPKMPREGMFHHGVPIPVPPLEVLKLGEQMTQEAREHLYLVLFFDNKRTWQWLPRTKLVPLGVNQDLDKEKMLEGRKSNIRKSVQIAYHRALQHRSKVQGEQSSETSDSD

[1] = target: Fibroblast growth factor receptor 2 (Homo sapiens) (UniProt P21802); conditions: Compound concentration 20.0 uM
Sequence of Fibroblast growth factor receptor 2 (Homo sapiens) (P21802 22-821 limits assumed): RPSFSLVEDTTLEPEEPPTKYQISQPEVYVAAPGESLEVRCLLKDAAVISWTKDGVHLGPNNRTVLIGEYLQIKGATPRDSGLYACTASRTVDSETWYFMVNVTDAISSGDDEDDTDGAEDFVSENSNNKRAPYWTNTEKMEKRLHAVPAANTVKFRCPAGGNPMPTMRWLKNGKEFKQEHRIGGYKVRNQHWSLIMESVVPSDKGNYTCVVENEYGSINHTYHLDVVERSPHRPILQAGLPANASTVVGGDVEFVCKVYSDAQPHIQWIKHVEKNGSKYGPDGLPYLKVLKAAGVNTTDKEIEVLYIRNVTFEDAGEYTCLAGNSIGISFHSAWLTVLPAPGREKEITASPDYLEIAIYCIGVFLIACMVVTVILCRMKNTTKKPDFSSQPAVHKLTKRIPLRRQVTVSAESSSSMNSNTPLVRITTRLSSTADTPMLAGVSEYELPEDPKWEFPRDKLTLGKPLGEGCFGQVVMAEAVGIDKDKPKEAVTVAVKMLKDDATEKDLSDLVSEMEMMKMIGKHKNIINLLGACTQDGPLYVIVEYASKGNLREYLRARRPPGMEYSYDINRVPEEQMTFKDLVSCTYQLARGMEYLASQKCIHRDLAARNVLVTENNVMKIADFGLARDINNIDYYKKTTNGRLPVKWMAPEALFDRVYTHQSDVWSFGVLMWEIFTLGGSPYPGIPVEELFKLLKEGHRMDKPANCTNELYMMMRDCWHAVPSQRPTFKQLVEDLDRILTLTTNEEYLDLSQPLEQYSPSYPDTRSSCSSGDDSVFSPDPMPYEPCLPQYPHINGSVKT
Description: Thermal Shift Assay. Domain: start/stop: T457-E768

Structure (SMILES) | ΔTm (Peregrin (Homo sapiens)) [°C] | ΔTm [1] [°C]
C[C@]12CC[C@@H]3c4ccc(O)cc4C[C@@H](CCCCCCCCC[S+]([O-])CCCC(F)(F)C(F)(F)F)[C@H]3[C@@H]1CC[C@@H]2O (some centres not stated) | 0 | -3.24
FC(F)(F)Cn1cc(-c2ccncc2)c(-c2ccc(OCc3ccc4ccccc4n3)cc2)n1 | 0.9 | 0.04
COc1nc(N)nc(Nc2cc(S(N)(=O)=O)ccc2N[C@@H](c2cccc3c2OC(F)(F)O3)c2ncccc2Cl)n1 | -3.63 | 1.9
Nc1ccccc1NC(=O)c1ccc(CNC(=O)OCc2cccnc2)cc1 | -0.57 | 0.41
Cn1ncc2c(-c3c(-c4ccc(F)cn4)nn4c3COC(C)(C)C4)ccnc21 | -1.06 | 1.01
CCN(CCN(C)C)C(=O)CNCc1cc(C(N)=O)ccn1 | -1.31 | 0.97
O=C(NCc1ncccc1F)c1coc(CCNCCc2nc3ccccc3[nH]2)n1 | -1.77 | -0.6
C=CCn1c(N[C@@H]2C[C@H](c3ccc(OCc4ccccc4)cc3)CN(C)C2)nc2cc[nH]c2c1=O | 3.96 | 0.37
CCC(CC)N(CCN(C)C(=O)CCC(=O)O)Cc1cccc(C(=O)Nc2sc3c(c2C(=O)c2cnn(-c4ccc(Cl)c(C(F)(F)F)c4)c2)CCC(C)(C)C3)c1 | -1.97 | -2.12
O=C(c1ccc2c(ccn2-c2ccc(F)cc2)c1)N1CC(N2CCN(C(=O)c3nccs3)CC2)C1 | -2.53 | -0.43
COc1cc2c(NCC3CCN(C)CC3)cc(-c3ccc(C)o3)nc2cc1OCCCN1CCCC1 | -0.88 | 0.16
CC(C)[C@@H]1NC(=O)[C@H](Cc2ccc(O)cc2)NC(=O)[C@@H](CC(=O)O)NC(=O)S[C@@H](C(=O)O)NC(=O)[C@H]([C@H](C)O)NC(=O)[C@H](Cc2ccc(O)cc2)NC(=O)[C@H](Cc2c[nH]c3ccccc23)NC(=O)[C@H](CCCNC(=N)N)NC(=O)[C@H](Cc2c[nH]c3ccccc23)NC(=O)[C@H](C)NC(=O)[C@H](CO)NC(=O)[C@H](CCCNC(=N)N)NC(=O)[C@H]([C@H](C)O)NC(=O)[C@H](CC(N)=O)NC(=O)[C@H](Cc2ccc(O)cc2)NC1=O | 1.38 | 0.32
CC(=O)N1CCN([C@H]2CCC[C@@H](NC(=O)c3cc4c(F)ccc(C)c4[nH]3)C2)CC1 | -1.02 | -2.8
CC(C)(C)C1CCN(C(=O)n2ncc(C(O)(c3ccccc3)c3ccccc3)n2)CC1 | -4.31 | -3.22
CCNC(=O)c1noc(-c2cc(C(C)C)c(O)cc2O)c1-c1ccc(CN2CCOCC2)cc1 | -1.1 | 0.62
COc1ncc(C)cc1CC[C@@](O)(CC(=O)O)C(=O)O | 1.67 | 0.32
CCNC(=O)c1cc2c(-c3cc(C(C)(C)O)ccc3Oc3c(C)cc(F)cc3C)cn(C)c(=O)c2[nH]1 | 1.94 | 0.28
Cc1[nH]nc(C(F)(F)F)c1Cc1sc2c(c1C(=O)N1C[C@](C)(O)CO1)c(=O)n(C)c(=O)n2C(C)C | 0.94 | 1.06
CNC(=O)c1cc(Nc2ccnc(Nc3ccc(CCNC(=O)OC(C)(C)C)cc3)n2)n[nH]1 | -1.87 | 0.64
COc1ccc([C@@H]2CNC(=O)C2)cc1OC1CCCC1 | 0.39 | -0.37
CC(C)Oc1ccc2c(=O)[nH]c3sccc3c2c1 | -0.93 | 0.02
O=C(c1cccc(-c2ccc(-c3cn(C(=O)N4CCCCC4c4ccccc4)nn3)cc2)c1)N1CCCCC1 (configuration not stated) | 3.63 | 2.55
O=S(=O)(CSc1nnc(Br)n1Cc1ccc(Br)c2ccccc12)Nc1cccnc1 | 1.59 | -0.32
O=C(NCCCCCCCCNC(=O)C(Cl)Cl)C(Cl)Cl | 0.99 | -0.34
O=C1C(P(=O)(O)O)CC(O)N1O (configuration not stated) | 1.52 | -0.05
CN1CCN(c2nc(-c3ccc(C(=O)NC4(C(=O)NCC#N)CCCCC4)cc3)cs2)CC1 | -1.32 | 0.15

Structure (SMILES) | ΔTm (Peregrin (Homo sapiens)) [°C] | ΔTm [1] [°C]
COc1cc(Oc2ccnc3cc(OC)c(OC)cc23)ccc1NC(=O)NC(C)c1nccs1 (configuration not stated) | -1.23 | -3.29
COc1cc([C@@H]2Oc3c(O)cc([C@H]4Oc5cc(O)cc(O)c5C(=O)[C@@H]4O)cc3[C@H]2CO)ccc1O | 2.27 | -0.46
COc1cc2c(cc1OC)[C@H]1C[C@@H](OC(=O)[C@@H](N)C(C)C)[C@H](CC(C)C)CN1CC2 | -1.11 | 0.33
O=c1[nH]c(N2CCC3(CC2)CN(CCO)c2cc(F)cc(F)c23)nc2c1CCCC2 | 1.75 | -0.52
CCOC(=O)NCCCC(=O)NCCc1ccccc1 | -0.92 | 0.51
N=C(N)N/N=C/c1cccc(Cl)c1Cl | -0.71 | 0.87
O=C(NCC1CCOCC1)c1n[nH]cc1NC(=O)c1c(F)cccc1F | -1.34 | 0.69
Cc1cc(OCCCNCCC(N)=O)ccc1Cc1c(O[C@@H]2O[C@H](CO)[C@@H](O)[C@H](O)[C@H]2O)n[nH]c1C(C)C | 1.37 | 0.45
OC[C@H]1O[C@@H](c2ccc(F)c(Cc3cc4ccccc4s3)c2)[C@H](O)[C@@H](O)[C@@H]1O | 1.12 | -0.55
Cc1cc(C)c(-c2[nH]nc(C)c2C)cc1C(=O)N1CC(c2ccc(C#N)cc2)C1 | -1.03 | -0.22
CC(C)c1cc(C(=O)N2CC[C@@H](NC(=O)C3CC3)C2)[nH]n1 | -0.47 | -0.51
CC(C)(C)OC(=O)N1CCC[C@H]1C(=O)N1CCC[C@H]1C=O (Boc-Pro-Pro-aldehyde) | -0.14 | 0.01
Cc1c(Nc2ccc(S(=O)(=O)N3CCN(C)CC3)cc2F)nc2ccc(-c3cnn(C4CC4)c3)cn2c1=O | 0.83 | -0.17
COc1cc(Nc2ncc(F)c(Nc3ccc4c(n3)N(COP(=O)(O)O)C(=O)C(C)(C)O4)n2)cc(OC)c1OC | -0.81 | 4.69
COc1cc2c(cc1-c1c(C)noc1C)[nH]c1nc(C)nc(Nc3cc(C4CC4)nn3C)c12 | 1.07 | -0.94
N#Cc1ccc(N2N=C3c4ccc(C(=O)O)cc4CC[C@@H]3[C@@H]2C2CCCC2)cc1Cl | -8.37 | -1.06
Cc1cc(C)cc(Oc2ccc(CNC(=O)[C@H](C)N)cc2C)c1 | -1.68 | 0.01
Cc1cc(/N=N/c2ccc(S(=O)(=O)Nc3ccccn3)cc2)c(N)cc1O | 5.09 | 0.17
N#C[C@@H]1C[C@@H]2C[C@@H]2N1C(=O)[C@@H](N)C12CC3CC(CC(O)(C3)C1)C2 | -0.63 | 0.29
CC(C)N(C(=O)c1cc(F)ccc1Oc1cncnc1N1CC2(CCN(C[C@H]3CC[C@H](NS(C)(=O)=O)CC3)CC2)C1)C(C)C | 0.63 | -0.47
CC(=O)N[C@@H](CC(C)C)C(=O)N[C@@H](CCC(=O)O)C(=O)N[C@H](C(=O)N[C@H](C=O)CC(=O)O)C(C)C (Ac-LEVD-aldehyde) | -1.25 | 0.88
N[C@@H](CCCCNC(=O)OCc1ccc([N+](=O)[O-])cc1)C(=O)N1CCCC1 | 0.82 | -0.09
CN(C)CCCN(CC[C@H](N)C(=O)O)C[C@H]1O[C@@H](n2cnc3c(N)ncnc32)[C@H](O)[C@@H]1O | -1.18 | -1.19
O=c1[nH]c(Oc2cnn(Cc3ccccc3)c2)nc2cnccc12 | 3.09 | -0.24
CS(=O)(=O)Nc1ccc2oc3c(OC(F)F)ccc(C(=O)Nc4c(Cl)cncc4Cl)c3c2c1 | 0.46 | -0.38
